Laboratory results taken from publication PMC11240954 (International Journal of Molecular Sciences, 2024).
pIC50: −log10 of the molar value. Like-named read-outs stand apart in the source and are kept apart here. Peptide text beside a SMILES is read from it.

What was measured:
[1] = test system: MDCK cells; conditions: dog
[2] = test system: Murine Norovirus-1
[3] = test system: Vero cells; conditions: African green monkey
[4] = test system: Influenza A Virus (H1N1)
[5] = test system: Influenza A Virus (H3N2)
[6] = test system: Human Adenovirus-5
[7] = test system: adenovirus; conditions: 111 µM LL-37 ref 60; cited from earlier work
[8] = in vitro; conditions: dog
[9] = in vitro; conditions: African green monkey
[10] = test system: Influenza A Virus (H1N1); assay: microbe, parasite or virus in culture; conditions: H1N1, MDCK, 3 h, read-out: IC50 Influenza A Virus (H1N1)/MDCK
[11] = test system: Influenza A Virus (H3N2); assay: microbe, parasite or virus in culture; conditions: H3N2, MDCK, 3 h, read-out: IC50 Influenza A Virus (H3N2)/MDCK
[12] = test system: Human Adenovirus-5; assay: microbe, parasite or virus in culture; conditions: Human mastadenovirus C, Vero, 3 h, read-out: IC50 Human Adenovirus-5/Vero
[13] = test system: Murine Norovirus-1; assay: microbe, parasite or virus in culture; conditions: Norwalk virus, in Mus musculus, 3 h, read-out: IC50 Murine Norovirus-1/Raw 246.7
[14] = test system: H1N1; assay: Transmission electron microscopy of treated virus; parameters: species or system influenza virus H1N1 A/PR/8/34; conditions: TEM, 2 h exposure; untreated 120 nm
Experimental: (§1) The viruses were exposed to the peptide/mimics for 2 h at 37 °C. Following this, 10 µL of the treated mixture was applied onto a glow-discharged carbon-coated 200 mesh copper grid and left to evaporate for 5 min. Subsequently, the sample was stained with 2% phosphotungstic acid (pH 4.5) for 1 min to enhance contrast. After air-drying, the grids were examined using an FEI Tecnai G2 20 transmission electron microscope (TEM).

[15] = test system: H3N2 virus; assay: Transmission electron microscopy of treated virus; parameters: species or system influenza virus H3N2 A/Hong Kong/8/68; conditions: 2 h exposure
Experimental: as §1

[16] = Circular dichroism conformational analysis; type: physicochemical; conditions: 125, 250, 500 µM
Experimental: Circular dichroism (CD) analysis was conducted using the Jasco J-1500 spectropolarimeter to assess the secondary structure of peptides and mimics. The samples were placed in a quartz cuvette with a path length of 0.1 cm (Fisher brand, Thermo Fisher Scientific Aust Pty Ltd.). Spectra were recorded in the range of 185–260 nm at a scan speed of 200 nm/min, averaging 4 scans. The impact of the solvents milliQ water or 30 mM SDS on Mel4 and mimic 758 was evaluated at three concentrations: 500 µM, 250 µM, and 125 µM. Data were averaged, and the spectrum of a sample-free control was subtracted.

[17] = read-out: IC50 Human Adenovirus-5/Vero

SMILES	SI Influenza A Virus (H1N1)/MDCK [4]	SI Influenza A Virus (H3N2)/MDCK [5]	pIC50 [10]	pIC50 [11]	CC50 ([8]; CC50 (H1N1/MDCK))	CC50 ([8]; CC50 (H3N2/MDCK))	pIC50 [12]	pIC50 [13]	other results
NCCCCC(N)C(=O)NCCNC(=O)C(Cc1c[nH]c2ccccc12)NC(=O)c1cc(Br)ccc1NC(=O)c1ccc(-c2ccccc2)cc1 (stereo not drawn) [4-BIPL]	1.2	1.2	–	–	–	–	–	–	CC50 [1]: 12.8 µM; pIC50 ([2]; read-out: IC50 Murine Norovirus-1/Raw 246.7): < 4.20; CC50 [3]: 38.8 µM; pIC50 ([4]; read-out: IC50 Influenza A Virus (H1N1)/MDCK): 4.99; pIC50 ([5]; read-out: IC50 Influenza A Virus (H3N2)/MDCK): 4.98; pIC50 [6, 17]: < 4.20
CC[C@H](C)[C@H](NC(=O)[C@H](CCCCN)NC(=O)[C@H](CCC(=O)O)NC(=O)[C@H](CCCCN)NC(=O)[C@H](CO)NC(=O)[C@H](CCCCN)NC(=O)[C@H](CCCNC(=N)N)NC(=O)[C@H](Cc1ccccc1)NC(=O)[C@H](Cc1ccccc1)NC(=O)[C@H](CC(=O)O)NC(=O)CNC(=O)[C@H](CC(C)C)NC(=O)[C@@H](N)CC(C)C)C(=O)NCC(=O)N[C@@H](CCCCN)C(=O)N[C@@H](CCC(=O)O)C(=O)N[C@@H](Cc1ccccc1)C(=O)N[C@@H](CCCCN)C(=O)N[C@@H](CCCNC(=N)N)C(=O)N[C@H](C(=O)N[C@H](C(=O)N[C@@H](CCC(N)=O)C(=O)N[C@@H](CCCNC(=N)N)C(=O)N[C@H](C(=O)N[C@@H](CCCCN)C(=O)N[C@@H](CC(=O)O)C(=O)N[C@@H](Cc1ccccc1)C(=O)N[C@@H](CC(C)C)C(=O)N[C@@H](CCCNC(=N)N)C(=O)N[C@@H](CC(N)=O)C(=O)N[C@@H](CC(C)C)C(=O)N[C@H](C(=O)N1CCC[C@H]1C(=O)N[C@@H](CCCNC(=N)N)C(=O)N[C@H](C(=O)N[C@@H](CCC(=O)O)C(=O)N[C@@H](CO)C(=O)O)[C@@H](C)O)C(C)C)[C@@H](C)CC)C(C)C)[C@@H](C)CC [LL-37, reference compound]	–	–	–	–	–	–	–	–	pIC50 ([2]; 3 h): 5.38; effect on adenovirus [7]: no effect; pIC50 ([4]; Virus, 3 h): < 3.30; pIC50 ([5]; Virus, 3 h): < 3.30; IC50 Human Adenovirus-5/Vero [6]: no activity; pIC50 ([6]; 3 h): < 3.90
N=C(N)NCCC[C@H](NC(=O)[C@H](CCCNC(=N)N)NC(=O)[C@H](CCCNC(=N)N)NC(=O)[C@H](CCCNC(=N)N)NC(=O)CNC(=O)CNC(=O)[C@H](CCCNC(=N)N)NC(=O)[C@H](CCCNC(=N)N)NC(=O)[C@H](CCCNC(=N)N)NC(=O)[C@H](CCCNC(=N)N)NC(=O)[C@H](CCCNC(=N)N)NC(=O)[C@H](CCCNC(=N)N)NC(=O)[C@H](CCCCN)NC(=O)[C@H](CCCNC(=N)N)NC(=O)[C@H](CCCCN)NC(=O)[C@H](CC(N)=O)NC(=O)[C@@H](N)CCCCN)C(=O)O [Mel4] (H-KNKRKRRRRRRGGRRRR-OH)	–	–	–	–	–	–	–	–	pIC50 ([2]; 3 h): 5.07; CC50 [8]: 12.7 µM; pIC50 ([4]; Virus, 3 h): < 3.30; pIC50 ([5]; Virus, 3 h): < 3.30; pIC50 ([6]; 3 h): 4.32; CC50 at 24 h [9]: 47.6 µM
CC[C@H](C)[C@H](NC(=O)[C@H](Cc1c[nH]c2ccccc12)NC(=O)[C@H](CO)NC(=O)[C@@H](NC(=O)[C@H](CC(C)C)NC(=O)[C@@H](N)[C@@H](C)O)[C@@H](C)CC)C(=O)N[C@@H](CCCCN)C(=O)N[C@@H](CC(N)=O)C(=O)N[C@@H](CCCCN)C(=O)N[C@@H](CCCNC(=N)N)C(=O)N[C@@H](CCCCN)C(=O)N[C@@H](CCC(N)=O)C(=O)N[C@@H](CCCNC(=N)N)C(=O)N1CCC[C@H]1C(=O)N[C@@H](CCCNC(=N)N)C(=O)N[C@H](C(=O)N[C@@H](CO)C(=O)N[C@@H](CCCNC(=N)N)C(=O)N[C@@H](CCCNC(=N)N)C(=O)N[C@@H](CCCNC(=N)N)C(=O)N[C@@H](CCCNC(=N)N)C(=O)N[C@@H](CCCNC(=N)N)C(=O)N[C@@H](CCCNC(=N)N)C(=O)NCC(=O)NCC(=O)N[C@@H](CCCNC(=N)N)C(=O)N[C@@H](CCCNC(=N)N)C(=O)N[C@@H](CCCNC(=N)N)C(=O)N[C@@H](CCCNC(=N)N)C(=O)O)C(C)C [Melimine] (H-TLISWIKNKRKQRPRVSRRRRRRGGRRRR-OH)	–	–	–	–	–	–	–	–	pIC50 ([2]; 3 h): 5.32; CC50 [8]: 28.1 µM; pIC50 ([4]; Virus, 3 h): < 3.30; pIC50 ([5]; Virus, 3 h): < 3.30; pIC50 ([6]; 3 h): < 3.90; CC50 at 24 h [9]: 14.5 µM
NCCCCC(N)C(=O)NCCNC(=O)C(Cc1c[nH]c2ccccc12)NC(=O)c1cc(Br)ccc1NC(=O)c1ccc2ccccc2c1 (stereo not drawn) [NAPL]	10.6	10.6	4.98	4.98	112 µM	112 µM	4.23	< 4.20	–
NCCNC(=O)C(Cc1c[nH]c2ccccc12)NC(=O)c1cc(-c2ccccc2-c2ccccc2)ccc1N (stereo not drawn) [Sau-22]	11.4	14.8	5.16	5.27	79.4 µM	79.4 µM	< 4.20	< 4.20	–
NCCNC(=O)C(Cc1c[nH]c2ccccc12)NC(=O)c1cc(-c2ccc3ccccc3c2)ccc1N (stereo not drawn) [compound 610]	14.1	9	5.63	5.43	33.3 µM	33.3 µM	< 4.20	< 4.20	average particle size of the virus after treatment [14]: 48 nm; effect on virus particle (TEM) [15]: reduction in size and disruption to the envelop and spike proteins
NCCNC(=Nc1ccccc1)NCCNC(=O)C(Cc1c[nH]c2ccccc12)NC(=O)c1cc(Br)ccc1NC(=O)c1ccc2ccccc2c1 (stereo not drawn) [compound 758]	11.9	15.8	4.91	5.03	147 µM	147 µM	< 4.20	< 4.20	secondary structure by CD in SDS ([16]; 30 mM SDS (membrane mimetic)): beta sheet-like structure; secondary structure by CD in water ([16]; milliQ water): beta sheet-like structure
NCCN=C(NCCN)NCCNC(=O)C(Cc1c[nH]c2ccccc12)NC(=O)c1cc(Br)ccc1NC(=O)c1ccc2ccccc2c1 (stereo not drawn) [compound 1083]	8.7	9.05	4.55	4.56	250 µM	250 µM	4.33	< 4.20	pIC50 [6, 17]: 4.35
N=C(N)NCCNC(=O)C(Cc1ccccc1)NC(=O)c1cc(Br)ccc1NC(=O)c1ccc2ccccc2c1 (stereo not drawn) [compound 1091]	5.5	5.2	4.64	4.62	128 µM	128 µM	< 4.20	< 4.20	–
NCCNC(=Nc1ccccc1)NCCNC(=O)C(Cc1ccccc1)NC(=O)c1cc(Br)ccc1NC(=O)c1ccc2ccccc2c1 (stereo not drawn) [compound 1096]	2.1	1.9	4.65	4.62	47.2 µM	47.2 µM	< 4.20	< 4.20	–
